Laboratory results reported in patent publication US20210300924A1, “5-[6-[[3-(4,5,6,7-TETRAHYDROPYRAZOLO[4,3-C]PYRIDIN-1-YL)AZETIDIN-1-YL]METHYL]MORPHOLIN-4-YL]QUINOLINE-8-CARBONITRILE DERIVATIVES AND SIMILAR COMPOUNDS AS TLR7-9 ANTAGONISTS FOR TREATING SYSTEMIC LUPUS ERYTHEMATOSUS” (Hoffmann-La Roche Inc., priority 2018, published 2021).

Key:
TLR9 = molecular target: T1, TLR9 (Homo sapiens, UniProt Q9NR96); assay: HEK293-Blue-hTLR-9 cells assay; assay type: cell-based; design: host or cells: HEK293 (HEK-Blue hTLR9); conditions: HEK293-Blue-hTLR9 cells, ODN2006 stimulation, 20 hrs, SEAP reporter; read-out: HEK/hTLR9 IC50
T1 sequence (Q9NR96 26-1032): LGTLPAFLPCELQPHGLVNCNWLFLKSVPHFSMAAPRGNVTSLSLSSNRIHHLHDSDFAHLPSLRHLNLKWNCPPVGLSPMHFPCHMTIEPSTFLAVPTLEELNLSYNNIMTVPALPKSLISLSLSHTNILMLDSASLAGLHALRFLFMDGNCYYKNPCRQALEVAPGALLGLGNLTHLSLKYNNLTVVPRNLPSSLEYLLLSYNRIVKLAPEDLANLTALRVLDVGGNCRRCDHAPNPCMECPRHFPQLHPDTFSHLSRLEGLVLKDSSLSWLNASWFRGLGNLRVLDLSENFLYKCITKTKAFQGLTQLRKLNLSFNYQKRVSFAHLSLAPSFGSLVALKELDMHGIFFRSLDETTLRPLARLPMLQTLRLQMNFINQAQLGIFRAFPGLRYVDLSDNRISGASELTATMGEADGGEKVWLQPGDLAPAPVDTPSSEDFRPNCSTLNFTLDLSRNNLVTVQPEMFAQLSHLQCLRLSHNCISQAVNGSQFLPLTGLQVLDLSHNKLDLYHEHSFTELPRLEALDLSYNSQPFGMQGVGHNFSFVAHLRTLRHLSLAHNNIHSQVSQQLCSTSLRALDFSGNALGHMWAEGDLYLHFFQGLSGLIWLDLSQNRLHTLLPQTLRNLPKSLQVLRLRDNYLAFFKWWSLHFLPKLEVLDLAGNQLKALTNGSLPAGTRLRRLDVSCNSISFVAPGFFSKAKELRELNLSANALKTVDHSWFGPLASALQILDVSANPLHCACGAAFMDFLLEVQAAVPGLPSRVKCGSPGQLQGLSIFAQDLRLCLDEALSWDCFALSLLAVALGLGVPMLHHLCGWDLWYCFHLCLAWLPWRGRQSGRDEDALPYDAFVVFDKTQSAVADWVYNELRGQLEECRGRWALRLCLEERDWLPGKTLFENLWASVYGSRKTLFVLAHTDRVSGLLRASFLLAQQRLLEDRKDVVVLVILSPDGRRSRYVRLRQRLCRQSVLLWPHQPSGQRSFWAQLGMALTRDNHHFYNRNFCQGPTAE
Excerpt: HEK293-Blue-hTLR-9 Cells Assay:
A stable HEK293-Blue-hTLR-9 cell line was purchased from InvivoGen (Cat. #: hkb-htlr9, San Diego, Calif., USA). These cells were originally designed for studying the stimulation of human TLR9 by monitoring the activation of NF-κB. A SEAP (secreted embryonic alkaline phosphatase) reporter gene was placed under the control of the IFN-β minimal promoter fused to five NF-κB and AP-1-binding sites. The SEAP was induced by activating NF-κB and AP-1 via stimulating HEK-Blue hTLR9 cells with TLR9 ligands. Therefore the reporter expression was declined by TLR9 antagonist under the stimulation of a ligand, such as ODN2006 (Cat. #: tlr1-2006-1, Invivogen, San Diego, Calif., USA), for incubation of 20 hrs. The cell culture supernatant SEAP reporter activity was determined using QUANTI-Blue™ kit (Cat. #: rep-01, Invivogen, San Diego, Calif., USA) at a wavelength of 640 nm, a detection medium that turns purple or blue in the presence of alkaline phosphatase.
HEK293-Blue-hTLR9 cells were incubated at a density of 250,000-450,000 cells/mL in a volume of 170 μL in a 96-well plate in Dulbecco's Modified Eagle's medium (DMEM) containing 4.5 g/L glucose, 50 U/mL penicillin, […], 2 mM L-glutamine, 10% (v/v) heat-inactivated fetal bovine serum with addition of 20 μL test compound in a serial dilution in the presence of final DMSO at 1% and 10 μL of 20 uM ODN2006 in above DMEM, perform incubation under 37° C. in a CO2 incubator for 20 hrs. Then 20 μL of the supernatant from each well was incubated with 180 μL Quanti-blue substrate solution at 37° C. for 2 h and the absorbance was read at 620-655 nm using a spectrophotometer. The signaling pathway that TLR9 activation leads to downstream NF-κB activation has been widely accepted, and therefore similar reporter assay was modified for evaluating TLR9 antagonist.

CYP2D6 = molecular target: T2, CYP2D6 (Homo sapiens, UniProt P10635); assay: CYP inhibition assay in human liver microsome; assay type: in vitro ADME; conditions: human liver microsomes, probe dextromethorphan, dextromethorphan substrate, percentage inhibition <0: not or weak inhibitor, read-out: CYP 2D6 inhibition % @ 10 μM
T2 construct: tissue BD-Gentest 452117; host or cells: human liver microsomes
T2 sequence (P10635 whole entry): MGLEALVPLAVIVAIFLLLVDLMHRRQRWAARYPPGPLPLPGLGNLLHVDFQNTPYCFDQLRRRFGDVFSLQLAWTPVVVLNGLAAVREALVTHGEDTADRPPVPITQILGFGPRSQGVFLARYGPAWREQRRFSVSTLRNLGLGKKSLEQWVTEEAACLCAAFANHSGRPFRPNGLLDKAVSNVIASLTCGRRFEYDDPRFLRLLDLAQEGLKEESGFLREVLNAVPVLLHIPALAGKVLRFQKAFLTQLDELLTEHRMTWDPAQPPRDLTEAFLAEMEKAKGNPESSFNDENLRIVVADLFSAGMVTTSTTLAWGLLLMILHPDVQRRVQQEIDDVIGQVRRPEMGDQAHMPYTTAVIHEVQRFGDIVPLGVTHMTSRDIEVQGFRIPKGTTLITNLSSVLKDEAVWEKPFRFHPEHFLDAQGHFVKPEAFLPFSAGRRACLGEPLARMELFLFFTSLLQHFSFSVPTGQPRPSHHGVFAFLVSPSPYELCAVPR
Experimental: This is a high throughput screening assay used for assessment of reversible inhibition of CYP2D6 activity of test compounds in human liver microsome (HLM) in early discovery stage.
10 mM DMSO stock solutions of test compounds were diluted in DMSO to generate 2 mM intermediate stock solution. 250 nL of intermediate stock solution were transferred in duplicate into 3 separate 384 well microtitre plates (assay-ready plates). A mixture of HLM and each substrate was made up. 45 μL of HLM substrate mix was then transferred to each well of an assay ready plate and mixed. The negative (solvent) and positive control (standard inhibitor for CYP 2D6) were included in each assay ready plate. The assay ready plate was warmed to 37° C. in an incubator over 10 minutes. 5 μL pre-warmed NADPH regenerating system was added to each incubation well to start the reaction. Final incubation volume was 50 μL. The assay plate then was placed back in the 37° C. incubator. After 10 minutes incubation, incubates were quenched by addition of 50 μL 100% acetonitrile containing internal standards (20 ng/mL D3-Dextrorphan). The supernatants were collected for RapidFire/MS/MS analysis.
RapidFire online solid phase extraction/sample injection system (Agilent) coupled with API4000 triple quadrupole mass spectrometer (AB Sciex) were used for sample analysis. The mobile phase composed of acetonitrile and water supplemented with 0.1% formic acid. A C4 solid phase extraction cartridge is used for sample separation. MS detection is achieved in positive ion MRM mode.
Peak areas for substrate, metabolite and internal standard are determined using the RapidFire integrator software (version 3.6.12009.12296). Peak area ratios (PAR) of metabolite and internal standard (stable-labelled metabolite) are then calculated. The measurement window for each experiment is then defined:
PAR (0% activity)=average PAR for all incubations containing concentrated inhibitor;
Par (100% activity)=average PAR for all incubations containing no inhibitor (DMSO controls);
% Activity (test inhibitor)=
[PAR(test inhibitor)−PAR(0% activity)]/[PAR(100% activity)−PAR(0% activity)]; % Inhibition (test inhibitor)=100−% Activity (test inhibitor).

Row | IC50 (TLR9) [nM] | inhibition at 10 min, 10 µM (CYP2D6) [%] | Structure (SMILES)
1 | 82 |  | C[C@@H]1CN(c2ccc(C#N)c3ncccc23)C[C@H](CN2CC(n3cc4c(n3)[C@H](C)CNC4)C2)O1 (single isomer, unassigned) [Example 25]
2 | 89 | 20 | C[C@@H]1CN(c2ccc(C#N)c3ncccc23)C[C@H](CN2CC(n3cc4c(n3)[C@@H](C)CNC4)C2)O1 (single isomer, unassigned) [Example 26]
3 | 65 | 22 | C[C@@H]1CN(c2ccc(C#N)c3ncccc23)C[C@H](CN2CC(n3ncc4c3CN[C@@H](C)C4)C2)O1 (single isomer, unassigned) [Example 27]
4 | 71 | 0.5 | C[C@@H]1Cc2cnn(C3CN(C[C@H]4CN(c5ccc(C#N)c6ncccc56)C[C@@H](C)O4)C3)c2CN1 (single isomer, unassigned) [Example 28]
5 | 72 |  | C[C@@H]1CN(c2ccc(C#N)c3ncccc23)C[C@H](CN2CC(n3cc4c(n3)CN[C@@H](C)C4)C2)O1 (single isomer, unassigned) [Example 29]
6 | 57 | 3.5 | C[C@@H]1Cc2cn(C3CN(C[C@H]4CN(c5ccc(C#N)c6ncccc56)C[C@@H](C)O4)C3)nc2CN1 (single isomer, unassigned) [Example 30]
7 | 61 | -3.5 | C[C@@H]1CN(c2ccc(C#N)c3ncccc23)C[C@H](CN2CC(n3ncc4c3[C@@H](C)NCC4)C2)O1 (single isomer, unassigned) [Example 31]
8 | 62 | 11 | C[C@@H]1CN(c2ccc(C#N)c3ncccc23)C[C@H](CN2CC(n3ncc4c3[C@H](C)NCC4)C2)O1 (single isomer, unassigned) [Example 32]
9 | 34 |  | C[C@@H]1CN(c2ccc(C#N)c3ncccc23)C[C@H](CN2CC(n3cc4c(n3)[C@@H](C)NCC4)C2)O1 (single isomer, unassigned) [Example 33]
10 | 36 | -11.5 | C[C@@H]1CN(c2ccc(C#N)c3ncccc23)C[C@H](CN2CC(n3cc4c(n3)[C@H](C)NCC4)C2)O1 (single isomer, unassigned) [Example 34]
11 | 57 |  | C[C@@H]1CN(c2ccc(C#N)c3ncccc23)C[C@H](CN2CC(n3ncc4c3CCNC4)C2)O1 [Example 1, 5-[(2R,6S)-2-methyl-6-[[3-(4,5,6,7-tetrahydropyrazolo[4,3-c]pyridin-1-yl)azetidin-1-yl]methyl]morpholin-4-yl]quinoline-8-carbonitrile]
12 | 66 | 1 | C[C@@H]1CN(c2ccc(C#N)c3ncccc23)C[C@H](CN2CC(n3cc4c(n3)CCNC4)C2)O1 [Example 2, 5-[(2R,6S)-2-methyl-6-[[3-(4,5,6,7-tetrahydropyrazolo[4,3-c]pyridin-2-yl)azetidin-1-yl]methyl]morpholin-4-yl]quinoline-8-carbonitrile]
13 | 51 | 10.5 | C[C@@H]1CN(c2ccc(C#N)c3ncccc23)C[C@H](CN2CC(n3ncc4c3CNCC4)C2)O1 [Example 3, 5-[(2R,6S)-2-methyl-6-[[3-(4,5,6,7-tetrahydropyrazolo[3,4-c]pyridin-1-yl)azetidin-1-yl]methyl]morpholin-4-yl]quinoline-8-carbonitrile]
14 | < 32 | 7.5 | C[C@@H]1CN(c2ccc(C#N)c3ncccc23)C[C@H](CN2CC(n3cc4c(n3)CNCC4)C2)O1 [Example 4, 5-[(2R,6S)-2-methyl-6-[[3-(4,5,6,7-tetrahydropyrazolo[3,4-c]pyridin-2-yl)azetidin-1-yl]methyl]morpholin-4-yl]quinoline-8-carbonitrile]
15 | 143 |  | C[C@@H]1CN(c2ccc(C#N)c3ncccc23)C[C@H](CN2CC(n3ncc4c3CNC4)C2)O1 [Example 10, 5-[(2S,6R)-2-[[3-(5,6-dihydro-4H-pyrrolo[3,4-c]pyrazol-1-yl)azetidin-1-yl]methyl]-6-methyl-morpholin-4-yl]quinoline-8-carbonitrile]
16 | 276 |  | Cc1nn(C2CN(C[C@H]3CN(c4ccc(C#N)c5ncccc45)C[C@@H](C)O3)C2)c2c1CN(C)CC2 [Example 14, 5-[(2S,6R)-2-[[3-(3,5-dimethyl-6,7-dihydro-4H-pyrazolo[4,3-c]pyridin-1-yl)azetidin-1-yl]methyl]-6-methyl-morpholin-4-yl]quinoline-8-carbonitrile]
17 | 98 |  | C[C@@H]1CN(c2ccc(C#N)c3ncccc23)C[C@H](CN2CC(n3cc4c(n3)C(C)(C)CNC4)C2)O1 [Example 24, 5-[(2S,6R)-2-[[3-(7,7-dimethyl-5,6-dihydro-4H-pyrazolo[4,3-c]pyridin-2-yl)azetidin-1-yl]methyl]-6-methyl-morpholin-4-yl]quinoline-8-carbonitrile]
18 | 82 |  | C[C@@H]1CN(c2ccc(C#N)c3ncccc23)C[C@H](CN2CCC(n3ncc4c3CCNC4)CC2)O1 [Example 35, 5-[(2R,6S)-2-methyl-6-[[4-(4,5,6,7-tetrahydropyrazolo[4,3-c]pyridin-1-yl)-1-piperidyl]methyl]morpholin-4-yl]quinoline-8-carbonitrile]
19 | 83 |  | Cc1c2c(nn1C1CN(C[C@H]3CN(c4ccc(C#N)c5ncccc45)C[C@@H](C)O3)C1)CNCC2 [Example 43, 5-[(2R,6S)-2-methyl-6-[[3-(3-methyl-4,5,6,7-tetrahydropyrazolo[3,4-c]pyridin-2-yl)azetidin-1-yl]methyl]morpholin-4-yl]quinoline-8-carbonitrile]
